Results on 18 compounds are retold here after publication PMC6270091, “GABAB-Agonistic Activity of Certain Baclofen Homologues” (Molecules, 2013).

“Also recorded” adds a separate entry of the source. Where a name gives a salt, the structure may show the parent alone.

Data set [1] concerns the target T1, GABABR1b/GABABR2 receptors co-expressed with the chimeric G protein Gαq-z5 in tsA201 cells (Rattus norvegicus, UniProt Q9Z0U4).
T1 construct: expressed in transfected cells; host or cells: tsA201 cells (transformed HEK293), transient transfection with pcDNA3.1 plasmids using SuperFect
As to the kind of experiment: GABAB antagonist test, intracellular calcium (Fluo-4) against 10 μM GABA in transfected tsA201 cells. Format: cell-based. As to conditions: 1 mM concentration against 10 μM GABA. The text has this: Regarding the structure-activity relationship in the synthesized series 1a–i, it has to be mentioned that mono-substitution on the aromatic moiety attached to the 3-position of the DAVA backbone with a halogen, especially a para-chloro, is optimum for GABABR agonistic activity. The synthesized compounds which evoked GABABR agonistic activity have the following decreasing order of activity: 1a > 1e > 1f.
(§1) TsA201 cells (a transformed human embryonic kidney (HEK) 293 cell line) were maintained at 37 °C in a humidified 5% CO2 incubator in Dulbecco’s modified Eagle medium (DMEM) supplemented with penicillin (100 U/mL), streptomycin (100 mg/mL) and 10% fetal calf serum. One million cells were split into a 10 cm tissue culture plate and transfected the following day with 0.7 μg GABABR1b-pcDNA3.1, 3.5 μg GABABR2-pcDNA3.1 and 0.7μg Gαq-z5-pcDNA using SuperFect as a DNA carrier according to the protocol by the manufacturer (Qiagen, Hilden, Germany). The day after transfection, cells were split into one poly-D-lysine coated 96-well black-walled–clear-bottomed tissue culture plates in the same medium as mentioned above and incubated overnight. The following day the measurement of intracellular calcium was performed as follows. The media was exchanged with Hanks balanced saline solution containing 1 mM CaCl2, 1 mM MgCl2, 20 mM HEPES, 2.5 mM probencid and 4 μM Fluo-4AM (pH = 7.4). The cells were incubated for 1 h at 37 °C in a humidified 5% CO2 incubator. Cells were then washed twice with the same buffer without Fluo-4AM and finally 100 μL of the buffer was left in the wells. The cell plate was then transferred to the NovoStar (BMG Labtechnologies, Offenburg, Germany) and the basal fluorescence level was adjusted to ~10,000 fluorescence units (FU) using excitation/emission wavelengths of 485–520 nm, respectively. Fluorescence readings were measured for 45 s after addition of ligand and response was calculated as peak response minus basal level. […] Twenty min after application of ligand, 10 μM GABA was added to the well and fluorescence was measured as above.

In data set [2] the target is T1, GABABR1b/GABABR2 receptors co-expressed with the chimeric G protein Gαq-z5 in tsA201 cells. The experiment in a line: GABAB agonist activity, intracellular calcium (Fluo-4) in transfected tsA201 cells. Conditions: Ca2+ response; for GABABR agonistic activity (in words): tsA201 cells; for EC50: agonist, tsA201 cells transfected with GABAB1b/GABAB2/Gqz5. Format: cell-based.
Source text: We have previously described a robust pharmacological assay of heterodimeric GABABR1b/GABABR2 receptors co-expressed with the chimeric G protein Gαq-z5 in tsA201 cells (a transformed HEK293 cell line). Co-expression of Gαq-z5 convert the endogenous coupling to the Gαi/o signaling pathway to the Gq pathway, which generally leads to more robust assays measured as increases in inositol phosphates or intracellular calcium levels.
Culture media, serum and antibiotics were obtained from Invitrogen (Paisley, UK). The rat GABABR plasmids and the Gαq-z5 construct were generous gifts from Dr. Janet Clark (National Institute of Health, Bethesda, MD, USA) and Dr. Bruce Conklin (University of California, San Francisco, CA, USA). The tsA201 cells were a generous gift from Dr. Penelope S. V. Jones (University of California, San Diego, CA, USA).
as §1, with “One” for “TsA201 cells (a transformed human embryonic kidney (HEK) 293 cell line) were maintained at 37 °C in a humidified 5% CO2 incubator in Dulbecco’s modified Eagle medium (DMEM) supplemented with penicillin (100 U/mL), streptomycin (100 mg/mL) and 10% fetal calf serum. One”, “The cells were incubated for 1 h at 37 °C in a humidified 5% CO2 incubator.” left out, “The cell plate was then transferred to the NovoStar (BMG Labtechnologies, Offenburg, Germany) and the basal fluorescence level was adjusted to ~10,000 fluorescence units (FU) using excitation/emission wavelengths of 485–520 nm, respectively.” left out
All data analysis has been carried out using GraphPad Prism version 6.0c for Mac OS X (GraphPad Software, San Diego, CA, USA). Concentration-response curves have been fitted by non-linear regression using the equation for sigmoidal concentration-response function:R = Rmin + (Rmax − Rmin)/(1 + 10 ^ (logEC50 − X)) in which X is the logarithm of the agonist concentration, R is the response, Rmax is the maximal response, Rmin is the minimal response and EC50 is the concentration giving half maximum response.
For orientation: Calcium flux is commonly read through the fluorescence of an indicator in the cells.

In the next data set the test system is GABAB receptors. Further details: method as in earlier work. Conditions: cited from earlier work.

T1 sequence (Q9Z0U4 1-844 isoform Q9Z0U4-3): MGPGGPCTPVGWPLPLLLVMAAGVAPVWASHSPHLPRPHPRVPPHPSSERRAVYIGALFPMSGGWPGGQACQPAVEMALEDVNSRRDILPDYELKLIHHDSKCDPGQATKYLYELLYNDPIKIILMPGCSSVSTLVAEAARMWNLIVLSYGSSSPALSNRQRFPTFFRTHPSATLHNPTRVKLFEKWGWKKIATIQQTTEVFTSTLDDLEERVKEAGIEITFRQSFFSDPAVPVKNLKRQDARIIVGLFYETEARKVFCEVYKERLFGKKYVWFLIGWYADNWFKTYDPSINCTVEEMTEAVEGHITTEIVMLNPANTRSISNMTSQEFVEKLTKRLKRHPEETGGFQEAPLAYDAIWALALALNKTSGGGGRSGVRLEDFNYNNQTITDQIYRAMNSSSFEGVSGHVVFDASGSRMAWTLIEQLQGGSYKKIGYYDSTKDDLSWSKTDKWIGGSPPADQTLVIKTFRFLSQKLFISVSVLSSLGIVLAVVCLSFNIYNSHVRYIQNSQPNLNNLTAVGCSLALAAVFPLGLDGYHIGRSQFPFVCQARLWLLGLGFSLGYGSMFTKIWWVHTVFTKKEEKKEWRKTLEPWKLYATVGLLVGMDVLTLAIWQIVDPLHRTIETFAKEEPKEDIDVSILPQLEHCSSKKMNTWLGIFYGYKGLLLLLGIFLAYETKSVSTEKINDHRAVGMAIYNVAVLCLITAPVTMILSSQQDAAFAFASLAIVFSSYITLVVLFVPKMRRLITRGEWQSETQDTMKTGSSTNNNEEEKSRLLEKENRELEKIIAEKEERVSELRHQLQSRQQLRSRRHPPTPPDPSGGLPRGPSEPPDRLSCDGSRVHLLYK
T1 sequence (O88871 41-940 partner): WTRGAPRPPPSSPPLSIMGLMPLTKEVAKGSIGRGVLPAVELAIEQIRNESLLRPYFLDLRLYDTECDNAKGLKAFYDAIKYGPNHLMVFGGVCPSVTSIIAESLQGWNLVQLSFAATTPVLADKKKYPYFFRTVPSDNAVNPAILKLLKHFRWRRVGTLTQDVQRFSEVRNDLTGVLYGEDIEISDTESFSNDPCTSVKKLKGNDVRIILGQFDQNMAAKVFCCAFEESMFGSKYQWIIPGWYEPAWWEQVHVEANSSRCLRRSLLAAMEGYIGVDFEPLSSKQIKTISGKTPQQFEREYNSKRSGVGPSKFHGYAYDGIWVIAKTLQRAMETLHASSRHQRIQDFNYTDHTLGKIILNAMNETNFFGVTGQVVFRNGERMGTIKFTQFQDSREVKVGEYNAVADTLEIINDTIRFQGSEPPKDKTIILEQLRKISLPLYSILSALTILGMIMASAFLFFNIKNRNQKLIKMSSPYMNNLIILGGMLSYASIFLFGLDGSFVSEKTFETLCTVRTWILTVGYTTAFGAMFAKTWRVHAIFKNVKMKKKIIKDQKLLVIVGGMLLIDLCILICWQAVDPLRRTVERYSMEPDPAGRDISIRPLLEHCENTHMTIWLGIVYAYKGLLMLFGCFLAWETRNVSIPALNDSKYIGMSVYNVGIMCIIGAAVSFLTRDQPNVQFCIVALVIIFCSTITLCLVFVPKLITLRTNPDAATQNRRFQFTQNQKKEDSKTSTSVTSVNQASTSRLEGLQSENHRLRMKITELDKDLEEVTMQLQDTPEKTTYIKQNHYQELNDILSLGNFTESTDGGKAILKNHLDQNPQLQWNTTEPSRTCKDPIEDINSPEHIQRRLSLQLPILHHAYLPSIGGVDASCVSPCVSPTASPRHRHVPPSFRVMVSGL

As for `Cc1ccc(C(CCN)CC(=O)O)cc1` (racemic) (as salt: hydrochloride) [Compound 1c, (R,S)-5-Amino-3-(4-methylphenyl)pentanoic acid hydrochloride], the melting point fell in the range of 204 to 206 °C.

In turn, `NCCC(CC(=O)O)c1ccc(Cl)c(Cl)c1` (racemic) (as salt: hydrochloride) [Compound 1e, (R,S)-5-Amino-3-(3,4-chlorophenyl)pentanoic acid hydrochloride] gave a melting point of 201 to 203 °C.

With `COc1cccc(C(CCN)CC(=O)O)c1` (racemic) (as salt: hydrochloride) [Compound 1g, (R,S)-5-Amino-3-(3-methoxyphenyl)pentanoic acid hydrochloride], the melting point was 182 to 184 °C.

With `CC(CCN)CC(=O)O` (racemic) [Compound 1i, (R,S)-5-amino-3-methylpentanoic acid], the melting point lay within 164 to 165 °C. Moreover, the GABABR antagonist activity result in data set [1] is reported as “none of these compounds were effective”. In data set [2], the “GABABR agonistic activity (in words)” value is “loss of GABABR agonistic activity; also recorded: devoid of GABABR agonistic activity” and the EC50 was more than 300 µM.

In the case of `COc1ccc(C(CCN)CC(=O)O)cc1` (racemic) [Compound 1h, (R,S)-5-Amino-3-(4-methoxyphenyl)pentanoic acid hydrochloride], the GABABR antagonist activity result in data set [1] is “none of these compounds were effective”. Besides, in data set [2], the EC50 is more than 300 µM.

Turning to `NCCC(CC(=O)O)c1ccccc1` (racemic) [Compound 1d, (R,S)-5-Amino-3-phenylpentanoic acid hydrochloride], the GABABR antagonist activity result in data set [1] is on record as “none of these compounds were effective”. The EC50 in data set [2] is more than 300 µM.

For the compound `NCCC(CC(=O)O)c1ccc(Cl)c(Cl)c1` (racemic) [Compound 1e, (R,S)-5-Amino-3-(3,4-chlorophenyl)pentanoic acid hydrochloride], the EC50 in data set [2] came out at 130 µM.

As to `NCCC(CC(=O)O)c1ccccc1` (racemic) (as salt: hydrochloride) [Compound 1d, (R,S)-5-Amino-3-phenylpentanoic acid hydrochloride], the melting point lay in the range of 195 to 196 °C.

With `NCCC(CC(=O)O)c1ccc(F)cc1` (racemic) [Compound 1f, (R,S)-5-Amino-3-(4-fluorophenyl)pentanoic acid hydrochloride], in data set [2], the EC50 worked out at 170 µM.

In the case of `COc1cccc(C(CCN)CC(=O)O)c1` (racemic) [Compound 1g, (R,S)-5-Amino-3-(3-methoxyphenyl)pentanoic acid hydrochloride], the GABABR antagonist activity entry in data set [1] is on record as “none of these compounds were effective”. For the same compound, the EC50 in data set [2] is more than 300 µM.

In the case of `NCCC(CC(=O)O)c1ccc(Cl)cc1Cl` (racemic) (as salt: hydrochloride) [Compound 1b, (R,S)-5-Amino-3-(2,4-chlorophenyl)pentanoic acid hydrochloride], the melting point lay within 215 to 217 °C.

For the compound `Cc1ccc(C(CCN)CC(=O)O)cc1` (racemic) [Compound 1c, (R,S)-5-Amino-3-(4-methylphenyl)pentanoic acid hydrochloride], in data set [1], the GABABR antagonist activity result is given as “none of these compounds were effective”. Also, the EC50 in data set [2] was more than 300 µM.

Consider `NCCC(CC(=O)O)c1ccc(Cl)cc1` (racemic) (as salt: hydrochloride) [Compound 1a, (R,S)-5-Amino-3-(4-chlorophenyl)pentanoic acid hydrochloride], for which the melting point lay within 201 to 203 °C.

`NCCC(CC(=O)O)c1ccc(F)cc1` (racemic) (as salt: hydrochloride) [Compound 1f, (R,S)-5-Amino-3-(4-fluorophenyl)pentanoic acid hydrochloride] showed a melting point of 208 to 210 °C.

`COc1ccc(C(CCN)CC(=O)O)cc1` (racemic) (as salt: hydrochloride) [Compound 1h, (R,S)-5-Amino-3-(4-methoxyphenyl)pentanoic acid hydrochloride] displayed a melting point of 194 to 195 °C.

On to `NCCCC(C(=O)O)c1ccc(Cl)cc1` (racemic) [Compound 3, (R,S)-5-amino-2-(4-chlorophenyl)pentanoic acid], for which the “interaction with GABAB receptors” value in the data set with GABAB receptors is on record as “does not interact detectably”.

Turning to `NCCC(CC(=O)O)c1ccc(Cl)cc1Cl` (racemic) [Compound 1b, (R,S)-5-Amino-3-(2,4-chlorophenyl)pentanoic acid hydrochloride], the GABABR antagonist activity entry in data set [1] was “none of these compounds were effective”. For the same compound, in data set [2], the “GABABR agonistic activity (in words)” value is “lack of GABABR agonistic activity” and the EC50 is more than 300 µM.

In the case of `NCCC(CC(=O)O)c1ccc(Cl)cc1` (racemic) [Compound 1a, (R,S)-5-Amino-3-(4-chlorophenyl)pentanoic acid hydrochloride], the EC50 in data set [2] came out at 46 µM.

In general, melting point refers to the temperature, or range, at which the solid turns liquid. In general, EC50 refers to the concentration that produces a half-maximal response.
